Source: the NIST ThermoML archive (doi:10.1021/je050305z)

Details: Gas, Hot wire method

N#N [nitrogen]
Details | thermal conductivity [W/m/K]
235.41 K, 3405.4 kPa | 0.02334
235.72 K, 3405.4 kPa | 0.02333
255.55 K, 5432.8 kPa | 0.026
255.7 K, 1281.1 kPa | 0.02332
255.86 K, 5432.8 kPa | 0.02596
256.26 K, 1281.1 kPa | 0.02323
275.39 K, 5057.3 kPa | 0.02674
275.41 K, 1027.7 kPa | 0.02441
276.05 K, 5057.3 kPa | 0.0269
276.11 K, 1027.7 kPa | 0.02435
295.15 K, 1844.1 kPa | 0.02606
295.25 K, 4380.8 kPa | 0.02731
295.68 K, 1844.1 kPa | 0.02599
295.92 K, 4380.8 kPa | 0.02738
325.32 K, 716 kPa | 0.02758
325.43 K, 2042.9 kPa | 0.02842
326.2 K, 2042.9 kPa | 0.02845
326.23 K, 4941.8 kPa | 0.02961
326.39 K, 716 kPa | 0.02763
